What was measured:
[1] = test system: SK-MEL-28; experiment: cells; details: Homo sapiens, SK-MEL-28, 48 h; for CC50: read-out: LC50
[2] = test system: DU-145; experiment: cells; details: Homo sapiens, DU-145, 48 h; for CC50: read-out: LC50
[3] = test system: MCF-7; experiment: NCI DTP 60 cell line screen, SRB; details: for GI50 / CC50: Homo sapiens, MCF7, 48 h; for CC50: read-out: LC50; for TGI: MCF-7 (Breast Cancer), 48 h, SRB
[4] = test system: CAKI-1; experiment: NCI DTP 60 cell line screen, SRB; details: for TGI: CAKI-1 (Renal Cancer), 48 h, SRB; for GI50 / CC50: Homo sapiens, CAKI-1, 48 h; for CC50: read-out: LC50
[5] = test system: MDA-MB-231/ATCC; experiment: NCI DTP 60 cell line screen, SRB; details: for GI50 / CC50: Homo sapiens, MDA-MB-231, 48 h; for CC50: read-out: LC50; for TGI: MDA-MB-231/ATCC (Breast Cancer), 48 h, SRB
[6] = test system: K-562; experiment: cells; details: Homo sapiens, K562, 48 h; for CC50: read-out: LC50
[7] = test system: NCI-322M; experiment: NCI DTP 60 cell line screen, SRB; details: 48 h; for GI50 / CC50: Homo sapiens, NCI-322M; for CC50: read-out: LC50; for TGI: NCI-322M (Non-Small Cell Lung Cancer), SRB
[8] = test system: SNB-75; experiment: cells; details: Homo sapiens, SNB-75, 48 h; for CC50: read-out: LC50
[9] = test system: HS 578T; experiment: NCI DTP 60 cell line screen, SRB; details: 48 h; for TGI: HS 578T (Breast Cancer), SRB; for GI50 / CC50: Homo sapiens, Hs-578T; for CC50: read-out: LC50
[10] = test system: SK-MEL-5; experiment: NCI DTP 60 cell line screen, SRB; details: for GI50 / CC50: Homo sapiens, SK-MEL-5, 48 h; for CC50: read-out: LC50; for TGI: SK-MEL-5 (Melanoma), 48 h, SRB
[11] = test system: Colo 205; experiment: NCI DTP 60 cell line screen, SRB; details: for TGI: Colo 205 (Colon Cancer), 48 h, SRB; for GI50 / CC50: Homo sapiens, COLO 205, 48 h; for CC50: read-out: LC50
[12] = test system: SW-620; experiment: cells; details: Homo sapiens, SW-620, 48 h; for CC50: read-out: LC50
[13] = test system: SK-MEL-28; details: SK-MEL-28 (Melanoma), 48 h, SRB
[14] = test system: OVCAR-8; experiment: NCI DTP 60 cell line screen, SRB; details: for GI50 / CC50: Homo sapiens, OVCAR-8, 48 h; for CC50: read-out: LC50; for TGI: OVCAR-8 (Ovarian Cancer), 48 h, SRB
[15] = test system: UO-31; experiment: NCI DTP 60 cell line screen, SRB; details: for GI50 / CC50: Homo sapiens, UO-31, 48 h; for CC50: read-out: LC50; for TGI: UO-31 (Renal Cancer), 48 h, SRB
[16] = test system: A549/ATCC; details: A549/ATCC (Non-Small Cell Lung Cancer), 48 h, SRB
[17] = test system: UACC-62; experiment: NCI DTP 60 cell line screen, SRB; details: for GI50 / CC50: Homo sapiens, UACC-62, 48 h; for CC50: read-out: LC50; for TGI: UACC-62 (Melanoma), 48 h, SRB
[18] = test system: PC-3; experiment: cells; details: Homo sapiens, PC-3, 48 h; for CC50: read-out: LC50
[19] = test system: SW-620; details: SW-620 (Colon Cancer), 48 h, SRB
[20] = test system: A549/ATCC; experiment: cells; details: Homo sapiens, A549, 48 h; for CC50: read-out: LC50
[21] = test system: OVCAR-5; experiment: NCI DTP 60 cell line screen, SRB; details: for GI50 / CC50: Homo sapiens, OVCAR-5, 48 h; for CC50: read-out: LC50; for TGI: OVCAR-5 (Ovarian Cancer), 48 h, SRB
[22] = test system: NCI-H23; details: NCI-H23 (Non-Small Cell Lung Cancer), 48 h, SRB
[23] = test system: SN12C; details: SN12C (Renal Cancer), 48 h, SRB
[24] = test system: CCRF-CEM; experiment: NCI DTP 60 cell line screen, SRB; details: 48 h; for TGI: CCRF-CEM (Leukemia), SRB; for GI50 / CC50: Homo sapiens, CCRF-CEM; for CC50: read-out: LC50
[25] = test system: SK-MEL-2; details: SK-MEL-2 (Melanoma), 48 h, SRB

O=C(O)C(Cc1ccccc1)N1C(=O)/C(=C/C(Cl)=C/c2ccc([N+](=O)[O-])cc2)SC1=S (centres unmarked) [Compound 2j, 2-{5-[(Z,2Z)-2-Chloro-3-(4-nitrophenyl)-2-propenylidene]-4-oxo-2-thioxothiazolidin-3-yl}-3-phenylpropanoic acid]
GI50 [1]: 2.16 µM | CC50 [1]: 11.6 µM | GI50 [2]: 2.06 µM | CC50 [2]: 11.7 µM | GI50 [3]: 2.38 µM | CC50 [3]: > 100 µM | TGI [3]: 10.7 µM | TGI [4]: 5.09 µM | GI50 [4]: 2.28 µM | CC50 [4]: 16.7 µM | GI50 [5]: 3.35 µM | CC50 [5]: > 100 µM | TGI [5]: > 100 µM | GI50 [6]: 3.01 µM | CC50 [6]: > 100 µM | GI50 [7]: > 100 µM | CC50 [7]: > 100 µM | TGI [7]: >100/>100/>100 μM | GI50 [8]: 1.96 µM | CC50 [8]: > 100 µM | TGI [9]: > 100 µM | GI50 [9]: 4.37 µM | CC50 [9]: > 100 µM | GI50 [10]: 1.68 µM | CC50 [10]: 5.6 µM | TGI [10]: 3.06 µM | TGI [11]: > 100 µM | GI50 [11]: 2.45 µM | CC50 [11]: > 100 µM | GI50 [12]: 2.1 µM | CC50 [12]: > 100 µM | TGI [13]: 4.68 µM | GI50 [14]: 3.13 µM | CC50 [14]: > 100 µM | TGI [14]: > 100 µM | GI50 [15]: 1.59 µM | CC50 [15]: 6.05 µM | TGI [15]: 3.10 µM | TGI [16]: > 100 µM | GI50 [17]: 2 µM | CC50 [17]: 30.2 µM | TGI [17]: 4.85 µM | GI50 [18]: 2.53 µM | CC50 [18]: > 100 µM | TGI [19]: 4.39 µM | GI50 [20]: 3.46 µM | CC50 [20]: > 100 µM | GI50 [21]: 2.82 µM | CC50 [21]: > 100 µM | TGI [21]: 7.91 µM | TGI [22]: 4.86 µM | TGI [23]: > 100 µM | TGI [24]: > 100 µM | GI50 [24]: 2.92 µM | CC50 [24]: > 100 µM | TGI [25]: 4.50 µM

O=C(O)CCN1C(=O)/C(=C/C(Cl)=C/c2ccc([N+](=O)[O-])cc2)SC1=S [Compound 2h, 3-{5-[(Z,2Z)-2-Chloro-3-(4-nitrophenyl)-2-propenylidene]-4-oxo-2-thioxothiazolidin-3-yl}propanoic acid]
GI50 [1]: 3.59 µM | CC50 [1]: 89.5 µM | GI50 [2]: 0.421 µM | CC50 [2]: 52.3 µM | GI50 [3]: 0.239 µM | CC50 [3]: > 100 µM | TGI [3]: 14.4 µM | TGI [4]: 6.14 µM | GI50 [4]: 0.485 µM | CC50 [4]: 47.1 µM | GI50 [5]: 1.08 µM | CC50 [5]: 25.9 µM | TGI [5]: 4.86 µM | GI50 [6]: 0.212 µM | CC50 [6]: > 100 µM | GI50 [7]: 2.83 µM | CC50 [7]: 63.4 µM | TGI [7]: 10.9 µM | GI50 [8]: 12.5 µM | CC50 [8]: > 100 µM | GI50 [10]: 0.0193 µM | CC50 [10]: 1.88 µM | TGI [10]: 0.0849 µM | TGI [11]: > 100 µM | GI50 [11]: 0.35 µM | CC50 [11]: > 100 µM | GI50 [12]: < 0.01 µM | CC50 [12]: > 100 µM | TGI [13]: 23.6 µM | GI50 [14]: 0.244 µM | CC50 [14]: > 100 µM | TGI [14]: 11.5 µM | GI50 [15]: 0.812 µM | CC50 [15]: 6.31 µM | TGI [15]: 2.43 µM | TGI [16]: 7.62 µM | GI50 [17]: 1.23 µM | CC50 [17]: 7.18 µM | TGI [17]: 2.97 µM | GI50 [18]: 0.712 µM | CC50 [18]: 41.9 µM | TGI [19]: 3.25 µM | GI50 [20]: 1.76 µM | CC50 [20]: > 100 µM | TGI [22]: 3.22 µM | TGI [23]: 2.99 µM | TGI [25]: 4.93 µM

O=C1/C(=C/C(Cl)=C/c2ccc([N+](=O)[O-])cc2)SC(=S)N1/N=C\C(Cl)=C\c1ccc([N+](=O)[O-])cc1 [Compound 2c, 5-[(Z,2Z)-2-Chloro-3-(4-nitrophenyl)-2-propenylidene]-3-[(Z,2Z)-2-chloro-3-(4-nitrophenyl)-2-propenylideneamino]-2-thioxo-4-thiazolidinone]
GI50 [2]: 21.7 µM | CC50 [2]: > 100 µM | GI50 [3]: 4.08 µM | CC50 [3]: 83.7 µM | TGI [3]: 19.8 µM | TGI [4]: 11.2 µM | GI50 [4]: 3.11 µM | CC50 [4]: > 100 µM | GI50 [5]: 10 µM | CC50 [5]: > 100 µM | TGI [5]: 35.4 µM | GI50 [6]: 3.98 µM | CC50 [6]: > 100 µM | GI50 [7]: 87.6 µM | CC50 [7]: > 100 µM | TGI [7]: > 100 µM | TGI [9]: > 100 µM | GI50 [9]: 29.5 µM | CC50 [9]: > 100 µM | GI50 [10]: 19.4 µM | CC50 [10]: 75.6 µM | TGI [10]: 38.3 µM | TGI [11]: > 100 µM | GI50 [11]: 56.2 µM | CC50 [11]: > 100 µM | GI50 [12]: 7.24 µM | CC50 [12]: > 100 µM | GI50 [14]: 1.98 µM | CC50 [14]: 8.38 µM | TGI [14]: 4.08 µM | GI50 [15]: 17.5 µM | CC50 [15]: 59.1 µM | TGI [15]: 32.2 µM | TGI [16]: 42.6 µM | GI50 [17]: 13.6 µM | CC50 [17]: 58 µM | TGI [17]: 28.1 µM | GI50 [18]: 8.1 µM | CC50 [18]: > 100 µM | TGI [19]: > 100 µM | GI50 [20]: 18.9 µM | CC50 [20]: 96.1 µM | GI50 [21]: 15.1 µM | CC50 [21]: 86.6 µM | TGI [21]: 36.2 µM | TGI [22]: 31.6 µM | TGI [23]: > 100 µM | TGI [24]: 35.3 µM | GI50 [24]: 4.42 µM | CC50 [24]: > 100 µM | TGI [25]: 36.4 µM

O=C1/C(=C/C(Cl)=C/c2ccc([N+](=O)[O-])cc2)SC(=S)N1c1ccc(O)cc1 [Compound 2f, 5-[(Z,2Z)-2-Chloro-3-(4-nitrophenyl)-2-propenylidene]-3-(4-hydroxyphenyl)-2-thioxo-4-thiazolidinone]
GI50 [1]: 4.49 µM | CC50 [1]: > 100 µM | GI50 [2]: 0.666 µM | CC50 [2]: 50.1 µM | GI50 [3]: 0.401 µM | CC50 [3]: > 100 µM | TGI [3]: 28.0 µM | TGI [4]: > 100 µM | GI50 [4]: 4.44 µM | CC50 [4]: > 100 µM | GI50 [5]: 2.18 µM | CC50 [5]: 92.1 µM | TGI [5]: 12.2 µM | GI50 [6]: 0.521 µM | CC50 [6]: > 100 µM | GI50 [7]: 2.49 µM | CC50 [7]: > 100 µM | TGI [7]: 9.02 µM | GI50 [8]: 25.1 µM | CC50 [8]: > 100 µM | GI50 [10]: < 0.01 µM | CC50 [10]: 3.41 µM | TGI [10]: < 0.01 µM | TGI [11]: > 100 µM | GI50 [11]: 4.34 µM | CC50 [11]: > 100 µM | GI50 [12]: 0.037 µM | CC50 [12]: > 100 µM | TGI [13]: 47.7 µM | GI50 [14]: 1.14 µM | CC50 [14]: > 100 µM | TGI [14]: 22.9 µM | GI50 [15]: 2.08 µM | CC50 [15]: > 100 µM | TGI [15]: 3.98 µM | TGI [16]: 6.47 µM | GI50 [17]: 1.69 µM | CC50 [17]: 8.78 µM | TGI [17]: 3.85 µM | GI50 [18]: 2.29 µM | CC50 [18]: > 100 µM | TGI [19]: 1.52 µM | GI50 [20]: 2.25 µM | CC50 [20]: > 100 µM | TGI [22]: 3.11 µM | TGI [23]: 4.41 µM
